Source: the supplement of paper PMC10307832

What was measured:
Assay in all cases: relative viability (nuclei count vs DMSO), 5 days (fraction); higher = more cells survive
[1] = compound: C=CCn1c(=O)c2cnc(Nc3ccc(N4CCN(C)CC4)cc3)nc2n1-c1cccc(C(C)(C)O)n1 [Adavosertib] + O=C(CCCCCCC(=O)Nc1ccccc1)NO [Vorinostat] (partner 1 µM)
Method in brief: (§1)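 A single step with final 0.05% Triton X-100, 1% formaldehyde and 1 ug/ml Hoechst fixed the cells and stained nuclei 5 days after treatment. Lung cancer cell lines in 1536-well plates had been treated by pin tool the day after seeding with one drug alone or a fixed anchor-drug dose plus five library-drug doses (not always all listed) in √10 steps, and nuclei were counted on 4× images. Relative viability is the ratio of nuclei in treated wells to nuclei in vehicle wells, taken as the median of duplicate plates.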

[2] = compound: C=CCn1c(=O)c2cnc(Nc3ccc(N4CCN(C)CC4)cc3)nc2n1-c1cccc(C(C)(C)O)n1 [Adavosertib] + COc1cc2c(Oc3ccc(NC(=O)C4(C(=O)Nc5ccc(F)cc5)CC4)cc3F)ccnc2cc1OCCCN1CCOCC1 [Foretinib] (partner 0.25 µM)
Method in brief: as §1

[3] = compound: COc1nc(N)nc2c1ncn2[C@@H]1O[C@H](CO)[C@@H](O)[C@@H]1O [Nelarabine] + CC1(C)CCC(c2ccc(Cl)cc2)=C(CN2CCN(c3ccc(C(=O)NS(=O)(=O)c4ccc(N[C@H](CCN5CCOCC5)CSc5ccccc5)c(S(=O)(=O)C(F)(F)F)c4)cc3)CC2)C1 [Navitoclax] (partner 0.5 µM)
Method in brief: as §1

[4] = compound: COc1nc(N)nc2c1ncn2[C@@H]1O[C@H](CO)[C@@H](O)[C@@H]1O [Nelarabine] + CC(=O)Nc1cccc(-n2c(=O)n(C3CC3)c(=O)c3c(Nc4ccc(I)cc4F)n(C)c(=O)c(C)c32)c1 [Trametinib] (partner 0.02 µM)
Method in brief: as §1

Row | Cell Line | relative viability ([1]; first compound 0.01 µM) | relative viability ([1]; first compound 0.03162 µM) | relative viability ([1]; first compound 0.1 µM) | relative viability ([1]; first compound 0.3162 µM) | relative viability ([2]; first compound 0.01 µM) | relative viability ([2]; first compound 0.03162 µM) | relative viability ([2]; first compound 0.1 µM) | relative viability ([2]; first compound 0.3162 µM) | relative viability ([3]; first compound 0.01 µM) | relative viability ([3]; first compound 0.03162 µM) | relative viability ([3]; first compound 0.1 µM) | relative viability ([3]; first compound 0.3162 µM) | relative viability ([3]; first compound 1 µM) | relative viability ([4]; first compound 0.01 µM) | relative viability ([4]; first compound 0.03162 µM) | relative viability ([4]; first compound 0.1 µM) | relative viability ([4]; first compound 0.3162 µM) | relative viability ([4]; first compound 1 µM)
1 | NCI-H520 | 0.756 | 0.734 | 0.681 | 0.59 | 0.784 | 0.81 | 0.743 | 0.703 | 1.32 | 0.999 | 1.28 | 1.18 | 1.37 | 0.817 | 0.599 | 0.757 | 0.903 | 0.697
2 | HCC-44 | 1.09 | 1.06 | 1.09 | 1.07 | – | – | – | – | 1.27 | 1.09 | 0.985 | 1.05 | 0.966 | 1.14 | 1.05 | 1.01 | 1.03 | 0.983
3 | NCI-H2087 | 0.812 | 0.637 | 0.702 | 0.826 | 1.22 | 1.11 | 1.37 | 1.06 | 1.02 | 0.944 | 0.971 | 0.9 | 0.979 | 0.181 | 0.167 | 0.196 | 0.245 | 0.202
4 | CAL-12T | 0.797 | 0.889 | 0.821 | 0.741 | 1.12 | 1.09 | 1.16 | 1.09 | 1.37 | 1.11 | 1.31 | 1.41 | 1.14 | 0.351 | 0.314 | 0.404 | 0.352 | 0.347
5 | NCI-H1355 | 0.609 | 0.649 | 0.679 | 0.568 | 1.01 | 1.02 | 0.975 | 0.946 | 1.1 | 0.818 | 0.923 | 1.01 | 0.991 | 0.451 | 0.343 | 0.43 | 0.346 | 0.477
6 | HARA | 0.485 | 0.629 | 0.592 | 0.587 | 0.977 | 0.892 | 0.84 | 0.335 | 1.17 | 1.08 | 1.07 | 1.22 | 1.06 | 0.412 | 0.703 | 0.676 | 0.754 | 0.718
7 | NCI-H2085 | 0.782 | 0.807 | 0.765 | 0.649 | 0.785 | 0.954 | 0.887 | 0.921 | 1.08 | 1.08 | 1.18 | 1.18 | 1.18 | 0.391 | 0.518 | 0.514 | 0.612 | 0.544
8 | IA-LM | – | 0.904 | 1.07 | 1.12 | 0.945 | 1.18 | 1.43 | 1.37 | 1 | 0.626 | 0.774 | 0.754 | 0.807 | – | – | – | – | –
